Experimental data as given in patent publication US20190308956A1, “PIPERAZINE DERIVATIVES AS ANTIVIRAL AGENTS WITH INCREASED THERAPEUTIC ACTIVITY” (SERVICIO ANDALUZ DE SALUD, priority 2016, published 2019).

Assays:
[1] = Cytotoxicity assay (alamarBlue cell viability); assay type: cell-based, Human; conditions: human, A549 cells, 48 h
How it was run: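 Actively dividing A549 cells exposed to compounds for 48 h, then alamarBlue (1/10th in culture medium) added for a further 4 h. CC50 taken as concentration giving 50% cytotoxicity; selectivity index = CC50/IC50, with IC50 from HAdV infection inhibition.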

[2] = test system: wild-type HAdV16; experiment: Virus yield reduction (burst assay, TCID50), HAdV16; assay type: cell-based; conditions: 50 μM, A549 cells, 48 h, yield with DMSO divided by yield with compound
Experimental: (§1) 1.8. Virus yield reduction. The effect of the active compounds on virus production was evaluated in a burst assay A549 cells were infected with wild-type HAdV5 or HAdV16 (MOI 100) in the presence or absence of 50 μM compounds. After 48 h, cells were harvested and subjected to three rounds of freeze/thaw. Serial dilutions of clarified lysates were titrated on A549 cells and TCID50 values were calculated using an endpoint dilution method.46

[3] = test system: HAdV5-GFP; experiment: Plaque assay, HAdV5-GFP in 293β5 cells; assay type: cell-based
How it was run: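 293β5 cells infected with HAdV5-GFP at 0.06 vp/cell for 2 h at 37° C. Then overlaid with agar/EMEM containing compound (5 to 1 μM stated range; screen run at 10 μM). After 7 days at 37° C., GFP plaques imaged and counted relative to DMSO control.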

[4] = test system: HCMV (AD169); experiment: HCMV infectivity assay by quantitative PCR; assay type: cell-based, human cytomegalovirus; conditions: Human betaherpesvirus 5, AD169, MRC5, MRC-5 cells, 72 h, qPCR, read-out: Inhibition of HCMV DNA replication
Experimental: 1.9. HCMV infectivity assay by quantitative PCR. […] After 72 h of incubation at 37° C., DNA was purified from the cell lysate with the QlAamp DNA Mini Kit (QIAGEN, Valencia, Calif.) following the manufacturer's instructions. TaqMan primers and probes for a region of the US28 gene were designed with the GenScript Real-time PCR (TaqMan) Primer Design software (GenScript). Oligonucleotides sequences were CMV-F: 5′-[…]-3′; CMV-R: 5′-[…]-3′; and CMV-Probe: 5′-[…]-3′. Real-time PCR mixtures consisted of 10 μl the purified DNA, CMV-F at a concentration of 100 nM, CMV-R at a concentration of 300 nM, and CMV-Probe at a concentration of 50 nM in a total volume of 12.5 μl and mixed with 12.5 μl of KAPA PROBE FAST qPCR Master Mix (KAPABiosystems, MA). The PCR cycling protocol was 95° C. for 10 min followed by 40 cycles of 95° C. for 30 sec and 58° C. for 60 sec. Human glyceraldehyde-3-phosphate dehydrogenase (GAPDH) was used as internal control. Oligonucleotides sequences for GAPDH and conditions were those previously reported by Rivera et al.44 For quantification, gene fragment from US28 and GAPDH were cloned into the pGEM-T Easy vector (Promega) and known concentrations of template were used to generate a standard curve in parallel for each experiment. All assays were performed in a C1000 Thermal Cycler apparatus (BioRad).

[5] = test system: wild type HAdV5; experiment: HAdV5 DNA quantification by real-time PCR; assay type: cell-based; conditions: A549, 24 h, A549 cells, 24 h post-infection, qPCR, read-out: Inhibition of HAdV5 DNA replication
Experimental: 1.6. DNA quantification by real-time PCR. For DNA quantification, A549 cells (150,000 cells/well in a 24 wells-plate) were infected with wild type HAdV5 or HAdV16 (100 vp/cell) and incubated for 2 h at 37° C. in complete DMEM. After the incubation, excess virus was removed and the medium was replaced with 500 μl of complete DMEM containing 50 μM of either compounds or the same volume of DMSO (positive control). All samples were done in triplicate. After 24 h of incubation at 37° C., DNA was purified from the cell lysate with the QlAamp DNA Mini Kit (QIAGEN, Valencia, Calif.) following the manufacturer's instructions. TaqMan primers and probes for a region of the HAdV5 hexon were designed with the GenScript Real-time PCR (TaqMan) Primer Design software (GenScript). Oligonucleotides sequences were AdF: 5′-[…]-3′; AdR: 5′-[…]-3′; and AdProbe: 5′-[…]-3′. […]
Human glyceraldehyde-3-phosphate dehydrogenase (GAPDH) gene was used as internal control. Oligonucleotides sequences for GAPDH and conditions were those previously reported by Rivera et al.44 For quantification, gene fragments from hexon and GAPDH were cloned into the pGEM-T Easy vector (Promega) and known concentrations of template were used to generate a standard curve in parallel for each experiment. […]

[6] = test system: HAdV16-GFP; experiment: Plaque assay, HAdV16-GFP in 293β5 cells; assay type: cell-based
Experimental: 1.5. Plaque assay. For low MOI infections, active compounds were further evaluated in a plaque assay. 293β5 cells were seeded in 6-well plates at 4×10^5 cells per well in duplicate for each condition. When cells reached 80-90% confluency, they were infected with HAdV5-GFP or HAdV16-GFP (0.06 vp/cell) and rocked for 2 h at 37° C. The inoculum was removed and the cells were washed once with PBS. The cells were then carefully overlaid with 4 ml/well of equal parts of 1.6% […] Difco Agar Noble (Becton, Dickinson & Co, Sparks, MD) and 2× EMEM (BioWhittaker) supplemented with 2x penicillin/streptomycin, 2× L-glutamine and 10% FBS. The mixture also contained compound in concentrations ranging from 5 to 1 μM. Following incubation for 7 days at 37° C., plates were scanned with a Typhoon 9410 imager (GE Healthcare Life Sciences), and plaques were quantified with ImageJ.43

[7] = test system: wild-type HAdV5; experiment: Virus yield reduction (burst assay, TCID50), HAdV5; assay type: cell-based; conditions: 50 μM, A549 cells, 48 h, yield with DMSO divided by yield with compound
Experimental: as §1

O=C(c1cc2ccccc2o1)N1CCN(C(=O)Nc2cc(C(F)(F)F)ccc2Cl)C(c2ccccc2)C1 (stereo not shown) [Compound 65, 4-(Benzofuran-2-carbonyl)-1-[(2-chloro-5-trifluoromethylphenyl)aminocarbonyl]-2 phenylpiperazine]
CC50 at 48 h [1]: 131000 ± 17800 nM | Virus yield reduction HAdV16 [2]: 33.2 ± 7.3 fold | Selectivity Index (SI) HAdV5 ([3]; ratio CC50 to IC50, HAdV5): 116.2 | IC50 ([3]; read-out: IC50 HAdV5): 1100 ± 50 nM | inhibition at 10 µM ([3]; read-out: Percentage of plaque formation inhibition, HAdV5-GFP, 10 μM, 293β5 cell line): 96 to 100% | inhibition at 50 µM [4]: 98.2 ± 0.38% | inhibition at 50 µM [5]: 33.1 ± 0.5% | IC50 [6]: 1800 ± 200 nM | Selectivity Index (SI) HAdV16 ([6]; ratio CC50 to IC50, HAdV16): 72.7 | Virus yield reduction HAdV5 [7]: 60.3 ± 15.2 fold
